# Columns and labels:
# thymidylate synthetase = thymidylate synthetase (Mus musculus, UniProt P07607); experiment: inhibitory effect on the enzyme thymidylate synthetase in vitro; format: biochemical; details: in vitro enzyme inhibition; read-out: IC50 against thymidylate synthetase
# Description: (§1) Compounds of this type are believed to act as anti-tumour agents by inhibiting the enzyme thymidylate synthetase. Their anti-tumour activity may be assessed in vitro by determining their inhibitory effect on that enzyme, and in cell cultures by their inhibitory effect on the cell line L1210.
# (§2) As also stated above a quinazoline of the invention is believed to act as an anti-tumour agent by inhibiting the enzyme thymidylate synthetase. This anti-tumour activity may be assessed in vitro by determining the inhibitory effect on that enzyme and is cell cultures by the inhibitory effect on the mouse leukaemia cell line L1210 (UK Patent Specification No. 2065653B).
# L1210 cell line = experiment: inhibitory effect on the mouse leukaemia cell line L1210 in cell culture; format: cell-based; details: read-out: IC50 against the L1210 cell line
# Description: as §1, §2
# humans = details: particularly in relation to the liver and kidney; cited from earlier work
# Sequence of thymidylate synthetase (P07607 whole entry): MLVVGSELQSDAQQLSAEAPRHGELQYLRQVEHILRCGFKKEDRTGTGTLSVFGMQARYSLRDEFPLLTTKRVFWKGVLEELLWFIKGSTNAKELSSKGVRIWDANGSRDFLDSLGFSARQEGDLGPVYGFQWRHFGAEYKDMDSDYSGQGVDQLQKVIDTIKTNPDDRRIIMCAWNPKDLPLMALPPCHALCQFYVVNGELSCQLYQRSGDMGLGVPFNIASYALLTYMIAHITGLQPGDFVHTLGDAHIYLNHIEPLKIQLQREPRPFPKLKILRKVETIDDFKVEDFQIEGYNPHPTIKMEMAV
Compound,IC50 (thymidylate synthetase) [nM],IC50 (L1210 cell line) [nM],symptoms of toxicity in humans (humans)
"C#CCN(Cc1cc2c(=O)[nH]c(C)nc2cc1C)c1ccc(C(=O)N[C@@H](CCC(=O)O)C(=O)O)cc1 [N-[p-[N-(3,4-dihydro-2,7-dimethyl-4-oxoquinazolin-6-ylmethyl)-N-(prop-2-ynyl)amino]benzoyl]-L-glutamic acid]",30,180,
C#CCN(Cc1ccc2nc(N)[nH]c(=O)c2c1)c1ccc(C(=O)N[C@@H](CCC(=O)O)C(=O)O)cc1 [CB3717],,,"shows symptoms of toxicity in humans, particularly in relation to the liver and kidney"

# Reference: patent US4981856A, “Anti-tumor agents” (Imperial Chemical Industries PLC, priority 1987, dated 1991)
